Laboratory results taken from patent publication US20160158317A1, “Antimicrobial Peptide Variants and Polynucleotides Encoding Same” (Adenium Biotech A/S, priority 2010, published 2016).
Where a SMILES comes first, the peptide text is derived from it. Bridges are numbered along the chain shown (N, C = ends).

Assay: Determination of the protein binding (90% serum, 30 kDa filter, HPLC)
Format: in vitro ADME
Conditions: serum
Experimental: Protein binding assays were performed as follows. The purified peptides were mixed with 90% serum and centrifuged through a 30 kDa filter. The ultra-filtrate and the non filtrated serum samples were quantified by HPLC measurements and the protein binding was subsequently calculated.

Row | Compound | fraction unbound
1 | CC(C)[C@@H]1NC(=O)CNC(=O)[C@H](CC(N)=O)NC(=O)[C@H](CCCNC(=N)N)NC(=O)[C@H](Cc2ccc(O)cc2)NC(=O)[C@H](C(C)C)NC(=O)[C@@H]2CSSC[C@H](NC(=O)[C@H](C(C)C)NC(=O)[C@H](CCCNC(=N)N)NC1=O)C(=O)N[C@@H](Cc1c[nH]cn1)C(=O)N[C@@H](CCCNC(=N)N)C(=O)N[C@@H](CCCNC(=N)N)C(=O)N[C@H](C(=O)N[C@@H](CCCCN)C(=O)O)CSSC[C@H](NC(=O)[C@H](Cc1ccccc1)NC(=O)CN)C(=O)N[C@@H](Cc1c[nH]c3ccccc13)C(=O)N[C@@H](CC(N)=O)C(=O)N[C@@H](C(C)C)C(=O)N2 [compound 284] (H-GFCWNVCVYRNGVRVCHRRCK-OH; disulfide 3-20, 7-16 (inferred); N-terminus and C-terminus assumed) | 0.28
2 | CC(C)[C@@H]1NC(=O)CNC(=O)[C@H](CC(N)=O)NC(=O)[C@H](CCCNC(=N)N)NC(=O)[C@H](Cc2ccc(O)cc2)NC(=O)[C@H](C(C)C)NC(=O)[C@@H]2CSSC[C@H](NC(=O)[C@H](C(C)C)NC(=O)[C@H](CCCNC(=N)N)NC1=O)C(=O)N[C@@H](Cc1c[nH]cn1)C(=O)N[C@@H](CCCNC(=N)N)C(=O)N[C@@H](CCCNC(=N)N)C(=O)N[C@H](C(=O)N[C@@H](CCCNC(=N)N)C(=O)O)CSSC[C@H](NC(=O)[C@H](Cc1ccccc1)NC(=O)CN)C(=O)N[C@@H](Cc1c[nH]c3ccccc13)C(=O)N[C@@H](CC(N)=O)C(=O)N[C@@H](C(C)C)C(=O)N2 [compound 289] (H-GFCWNVCVYRNGVRVCHRRCR-OH; disulfide 3-20, 7-16 (inferred); N-terminus and C-terminus assumed) | 0.17
3 | CC(C)[C@@H]1NC(=O)CNC(=O)[C@H](CC(N)=O)NC(=O)[C@H](CCCNC(=N)N)NC(=O)[C@H](Cc2ccc(O)cc2)NC(=O)[C@H](C(C)C)NC(=O)[C@@H]2CSSC[C@H](NC(=O)[C@H](C(C)C)NC(=O)[C@H](CCCNC(=N)N)NC1=O)C(=O)N[C@@H](Cc1c[nH]cn1)C(=O)N[C@@H](CCCNC(=N)N)C(=O)N[C@@H](CCCNC(=N)N)C(=O)N[C@H](C(=O)N[C@@H](Cc1c[nH]c3ccccc13)C(=O)O)CSSC[C@H](NC(=O)[C@H](Cc1ccccc1)NC(=O)CN)C(=O)N[C@@H](Cc1c[nH]c3ccccc13)C(=O)N[C@@H](CC(N)=O)C(=O)N[C@@H](C(C)C)C(=O)N2 [compound 291] (H-GFCWNVCVYRNGVRVCHRRCW-OH; disulfide 3-20, 7-16 (inferred); N-terminus and C-terminus assumed) | 0.01
4 | CC(C)[C@@H]1NC(=O)CNC(=O)[C@H](CC(N)=O)NC(=O)[C@H](CCCNC(=N)N)NC(=O)[C@H](C)NC(=O)[C@H](C(C)C)NC(=O)[C@@H]2CSSC[C@H](NC(=O)[C@H](C(C)C)NC(=O)[C@H](CCCNC(=N)N)NC1=O)C(=O)N[C@@H](Cc1c[nH]cn1)C(=O)N[C@@H](CCCNC(=N)N)C(=O)N[C@@H](CCCNC(=N)N)C(=O)N[C@H](C(=O)N[C@@H](CC(N)=O)C(=O)O)CSSC[C@H](NC(=O)[C@H](Cc1ccccc1)NC(=O)CN)C(=O)N[C@@H](Cc1c[nH]c3ccccc13)C(=O)N[C@@H](CC(N)=O)C(=O)N[C@@H](C(C)C)C(=O)N2 [compound 299] (H-GFCWNVCVARNGVRVCHRRCN-OH; disulfide 3-20, 7-16 (inferred); N-terminus and C-terminus assumed) | 0.26
5 | CC(C)[C@@H]1NC(=O)CNC(=O)[C@H](CC(N)=O)NC(=O)[C@H](CCCNC(=N)N)NC(=O)[C@H](Cc2c[nH]cn2)NC(=O)[C@H](C(C)C)NC(=O)[C@@H]2CSSC[C@H](NC(=O)[C@H](C(C)C)NC(=O)[C@H](CCCNC(=N)N)NC1=O)C(=O)N[C@@H](Cc1c[nH]cn1)C(=O)N[C@@H](CCCNC(=N)N)C(=O)N[C@@H](CCCNC(=N)N)C(=O)N[C@H](C(=O)N[C@@H](CC(N)=O)C(=O)O)CSSC[C@H](NC(=O)[C@H](Cc1ccccc1)NC(=O)CN)C(=O)N[C@@H](Cc1c[nH]c3ccccc13)C(=O)N[C@@H](CC(N)=O)C(=O)N[C@@H](C(C)C)C(=O)N2 [compound 303] (H-GFCWNVCVHRNGVRVCHRRCN-OH; disulfide 3-20, 7-16 (inferred); N-terminus and C-terminus assumed) | 0.57
6 | CC(C)[C@@H]1NC(=O)CNC(=O)[C@H](CC(N)=O)NC(=O)[C@H](CCCNC(=N)N)NC(=O)[C@H](CCCCN)NC(=O)[C@H](C(C)C)NC(=O)[C@@H]2CSSC[C@H](NC(=O)[C@H](C(C)C)NC(=O)[C@H](CCCNC(=N)N)NC1=O)C(=O)N[C@@H](Cc1c[nH]cn1)C(=O)N[C@@H](CCCNC(=N)N)C(=O)N[C@@H](CCCNC(=N)N)C(=O)N[C@H](C(=O)N[C@@H](CC(N)=O)C(=O)O)CSSC[C@H](NC(=O)[C@H](Cc1ccccc1)NC(=O)CN)C(=O)N[C@@H](Cc1c[nH]c3ccccc13)C(=O)N[C@@H](CC(N)=O)C(=O)N[C@@H](C(C)C)C(=O)N2 [compound 305] (H-GFCWNVCVKRNGVRVCHRRCN-OH; disulfide 3-20, 7-16 (inferred); N-terminus and C-terminus assumed) | 0.24
7 | CC(C)[C@@H]1NC(=O)CNC(=O)[C@H](CC(N)=O)NC(=O)[C@H](CCCNC(=N)N)NC(=O)[C@H](CCCNC(=N)N)NC(=O)[C@H](C(C)C)NC(=O)[C@@H]2CSSC[C@H](NC(=O)[C@H](C(C)C)NC(=O)[C@H](CCCNC(=N)N)NC1=O)C(=O)N[C@@H](Cc1c[nH]cn1)C(=O)N[C@@H](CCCNC(=N)N)C(=O)N[C@@H](CCCNC(=N)N)C(=O)N[C@H](C(=O)N[C@@H](CC(N)=O)C(=O)O)CSSC[C@H](NC(=O)[C@H](Cc1ccccc1)NC(=O)CN)C(=O)N[C@@H](Cc1c[nH]c3ccccc13)C(=O)N[C@@H](CC(N)=O)C(=O)N[C@@H](C(C)C)C(=O)N2 [compound 308] (H-GFCWNVCVRRNGVRVCHRRCN-OH; disulfide 3-20, 7-16 (inferred); N-terminus and C-terminus assumed) | 0.06
8 | CC(C)[C@@H]1NC(=O)[C@@H]2CSSC[C@H](NC(=O)[C@H](CCCCN)NC(=O)[C@H](CCCNC(=N)N)NC(=O)[C@H](C)NC(=O)CNC(=O)[C@H](CC(N)=O)NC(=O)[C@H](CCCNC(=N)N)NC(=O)[C@H](Cc3ccc(O)cc3)NC1=O)C(=O)N[C@@H](Cc1ccc(O)cc1)C(=O)N[C@@H](CCCNC(=N)N)C(=O)N[C@@H](CCCNC(=N)N)C(=O)N[C@H](C(=O)N[C@@H](CC(N)=O)C(=O)O)CSSC[C@H](NC(=O)[C@H](Cc1ccccc1)NC(=O)CN)C(=O)N[C@@H](Cc1c[nH]c3ccccc13)C(=O)N[C@@H](CCCNC(=N)N)C(=O)N[C@@H](C(C)C)C(=O)N2 [compound 313] (H-GFCWRVCVYRNGARKCYRRCN-OH; disulfide 3-20, 7-16 (inferred); N-terminus and C-terminus assumed) | 0.02
9 | CC(C)[C@@H]1NC(=O)CNC(=O)[C@H](CC(N)=O)NC(=O)[C@H](CCCNC(=N)N)NC(=O)[C@H](Cc2ccc(O)cc2)NC(=O)[C@H](C(C)C)NC(=O)[C@@H]2CSSC[C@H](NC(=O)[C@H](CCCCN)NC(=O)[C@H](CCCNC(=N)N)NC1=O)C(=O)N[C@@H](Cc1c[nH]cn1)C(=O)N[C@@H](CCCNC(=N)N)C(=O)N[C@@H](CCCNC(=N)N)C(=O)N[C@H](C(=O)N[C@@H](CC(N)=O)C(=O)O)CSSC[C@H](NC(=O)[C@H](Cc1ccccc1)NC(=O)CN)C(=O)N[C@@H](Cc1c[nH]c3ccccc13)C(=O)N[C@@H](CCCNC(=N)N)C(=O)N[C@@H](C(C)C)C(=O)N2 [compound 315] (H-GFCWRVCVYRNGVRKCHRRCN-OH; disulfide 3-20, 7-16 (inferred); N-terminus and C-terminus assumed) | 0.07
10 | CC(C)[C@@H]1NC(=O)CNC(=O)[C@H](CC(N)=O)NC(=O)[C@H](CCCNC(=N)N)NC(=O)[C@H](Cc2ccc(O)cc2)NC(=O)[C@H](C(C)C)NC(=O)[C@@H]2CSSC[C@H](NC(=O)[C@H](CO)NC(=O)[C@H](CCCNC(=N)N)NC1=O)C(=O)N[C@@H](Cc1c[nH]cn1)C(=O)N[C@@H](CCCNC(=N)N)C(=O)N[C@@H](CCCNC(=N)N)C(=O)N[C@H](C(=O)N[C@@H](CC(N)=O)C(=O)O)CSSC[C@H](NC(=O)[C@H](Cc1ccccc1)NC(=O)CN)C(=O)N[C@@H](Cc1c[nH]c3ccccc13)C(=O)N[C@@H](CCCNC(=N)N)C(=O)N[C@@H](C(C)C)C(=O)N2 [compound 316] (H-GFCWRVCVYRNGVRSCHRRCN-OH; disulfide 3-20, 7-16 (inferred); N-terminus and C-terminus assumed) | 0.1
11 | CC(C)[C@@H]1NC(=O)CNC(=O)[C@H](CC(N)=O)NC(=O)[C@H](CCCNC(=N)N)NC(=O)[C@H](Cc2ccc(O)cc2)NC(=O)[C@H](C(C)C)NC(=O)[C@@H]2CSSC[C@H](NC(=O)[C@H](C)NC(=O)[C@H](CCCNC(=N)N)NC1=O)C(=O)N[C@@H](Cc1ccc(O)cc1)C(=O)N[C@@H](CCCNC(=N)N)C(=O)N[C@@H](CCCNC(=N)N)C(=O)N[C@H](C(=O)N[C@@H](CC(N)=O)C(=O)O)CSSC[C@H](NC(=O)[C@H](Cc1ccccc1)NC(=O)CN)C(=O)N[C@@H](Cc1c[nH]c3ccccc13)C(=O)N[C@@H](CCCNC(=N)N)C(=O)N[C@@H](C)C(=O)N2 [compound 319] (H-GFCWRACVYRNGVRACYRRCN-OH; disulfide 3-20, 7-16 (inferred); N-terminus and C-terminus assumed) | 0.6
12 | CC(C)[C@@H]1NC(=O)CNC(=O)[C@H](CC(N)=O)NC(=O)[C@H](CCCNC(=N)N)NC(=O)[C@H](Cc2ccc(O)cc2)NC(=O)[C@H](C(C)C)NC(=O)[C@@H]2CSSC[C@H](NC(=O)[C@H](CO)NC(=O)[C@H](CCCNC(=N)N)NC1=O)C(=O)N[C@@H](Cc1ccc(O)cc1)C(=O)N[C@@H](CCCNC(=N)N)C(=O)N[C@@H](CCCNC(=N)N)C(=O)N[C@H](C(=O)N[C@@H](CC(N)=O)C(=O)O)CSSC[C@H](NC(=O)[C@H](Cc1ccccc1)NC(=O)CN)C(=O)N[C@@H](Cc1c[nH]c3ccccc13)C(=O)N[C@@H](CCCNC(=N)N)C(=O)N[C@@H](C)C(=O)N2 [compound 320] (H-GFCWRACVYRNGVRSCYRRCN-OH; disulfide 3-20, 7-16) | 0.12
